Reference: US9505754B2, “Compound useful for the treatment of degenerative and inflammatory diseases” (GALAPAGOS NV, priority 2009, dated 2016)

Tests used:
[1] = Microsomal stability, human; type: in vitro ADME; settings: human liver microsomes, 3 μM compound, 1 hour, 37° C.
Description: (§1) A 10 mM stock solution of compound in DMSO was diluted 1000 fold in a 182 mM phosphate buffer pH7.4 in a 96 deep well plate (Greiner, Cat no. 780285) and pre-incubated at 37° C.
(§2) 40 μL of deionised water was added to a well of a polypropylene Matrix 2D barcode labelled storage tube (Thermo Scientific) and pre-incubated at 37° C.
(§3) A Glucose-6-phophate-dehydrogenase (G6PDH) working stock solution was prepared in 182 mM phosphate buffer pH7.4 and placed on ice before use. A co-factor containing MgCl2, glucose-6-phosphate and NADP+ was prepared in deionised water and placed on ice before use. […]
(§4) These plates were sealed with sealing mats (MA96RD-04S) of www.kinesis.co.uk and samples were measured at room temperature on LCMS (ZQ 1525 from Waters) under optimized conditions using Quanoptimize to determine the appropriate mass of the parent molecule.
(§5) The samples were analyzed on LCMS with a flow rate of 1 mL/min. […]
(§6) Peak area from the parent compound at time 0 was considered to be 100% remaining. The percentage remaining after 1 hour incubation was calculated from time 0 and was calculated as the percentage remaining. […]
(§7) The data on microsomal stability are expressed as a percentage of the total amount of compound remaining after 60 minutes.

[2] = system: collagen induced arthritis; test: Rat CIA (collagen induced arthritis) model; type: in vivo
Description: Completed Freund's adjuvant (CFA) and incomplete Freund's adjuvant (IFA) were purchased from Difco. Bovine collagen type […] (CII), lipopolysaccharide (LPS), and Enbrel were obtained from Chondrex (Isle d'Abeau, France); Sigma (P4252, L'Isle d'Abeau, France), Whyett (25 mg injectable syringe, France) Acros Organics (Palo Alto, Calif.), respectively. All other reagents used were of reagent grade and all solvents were of analytical grade.
Dark Agouti rats (male, 7-8 weeks old) are obtained from Harlan Laboratories (Maison-Alfort, France). DBA/1J mice (male, 7 weeks old) were obtained from Centre d'Elevage et de Reproduction JANVIER (CERJ) (Laval, France). Rats and mice were kept on a 12 hours light/dark cycle (0700-1900). The temperature was maintained at 22° C., and food and water were provided ad libitum.
One day before the experiment, CII solution (2 mg/mL) was prepared with 0.05 M acetic acid and stored at 4° C. Just before the immunization, equal volumes of adjuvant (IFA) and CII were mixed by a homogenizer in a pre-cooled glass bottle in an ice water bath. Extra adjuvant and prolonged homogenization might be required if an emulsion is not formed.
Rat: 0.2 mL of the emulsion is injected intradermally at the base of the tail of each rat on day 1, a second booster intradermal injection (CII solution at 2 mg/mL in CFA 0.1 mL saline) is performed on day 9. This immunization method is modified from published methods (Sims N A et al., (2004) Targeting osteoclasts with zoledronic acid prevents bone destruction in collagen-induced arthritis, Arthritis Rheum. 50 2338-2346; Jou et al., 2005).
The therapeutic effects of the test compounds were tested in the rat or mouse CIA model. Animals were randomly divided into equal groups and each group contained 10 animals. All rats are immunized on day 1 and boosted on day 9. All mice were immunized on day 1 and boosted on day 21. Therapeutic dosing lasted from day 16 to day 30. The negative control group was treated with vehicle (MC 0.5%) and the positive control group with Enbrel (10 mg/kg, 3× week., s.c.). A compound of interest was typically tested at 3 doses, e.g. 3, 10, 30 mg/kg, p.o.
Arthritis was scored according the method of Khachigian 2006, Lin et al 2007 and Nishida et al. 2004). […]
The area under the curve (AUC) from day 1 to day 14 was calculated for each individual rat. The AUC of each animal was divided by the average AUC obtained for the vehicle in the study from which the data on that animal was obtained and multiplied by 100 (i.e. the AUC was expressed as a percentage of the average vehicle AUC per study).
The clinical score difference for each animal was divided by the average clinical score difference obtained for the vehicle in the study from which the data on that animal was obtained and multiplied by 100 (i.e. the difference was expressed as a percentage of the average clinical score difference for the vehicle per study).
Post-mortem, a Larsen’ score was derived for both hind paws of all rats by at least 2 scientists. The average of these scores was calculated to obtain one Larsen’ score per rat. […]

[3] = Microsomal stability, rat; type: in vitro ADME; settings: rat liver microsomes, 3 μM compound, 1 hour, 37° C.
Description: as §1, §2, §3, §4, §5, §6, §7

CC1(C)CN(C(=O)c2ccc(-c3cccc4nc(NC(=O)C5CC5)nn34)cc2)C1 [Compound 1, Cyclopropanecarboxylic acid {5-[4-(3,3-dimethyl-azetidine-1-carbonyl)-phenyl]-[1,2,4]triazolo[1,5-a]pyridin-2-yl}-amide]
Microsomal stability, Human (percentage of compound remaining after 60 minutes) [1]: 76-100% | endpoint clinical score ([2]; rat CIA, from 1 mg/kg): significant improvements | paw swelling ([2]; rat CIA, from 1 mg/kg): significant improvements | AUC of the clinical score ([2]; rat CIA, from 10 mg/kg): significant improvements | Larsen' score ([2]; rat CIA, from 30 mg/kg): significant improvements | efficacy in rat CIA study readouts ([2]; rat, 30, 10, 3 and 1 mg/kg): efficacious in all readouts | Microsomal stability, Rat (percentage of compound remaining after 60 minutes) [3]: 76-100%
